Measurements taken from patent publication US11986471B2, “Compounds and methods of use” (Tango Therapeutics, Inc., priority 2018, dated 2024).

Tests used:
PRMT5 [1] = target: T1, PRMT5 (Homo sapiens, UniProt O14744); experiment: PRMT5 IC50 assay in the presence of SAM as cofactor; format: biochemical
T1 construct: purchased Viva (custom protein)
Method in brief: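 Three cofactor conditions are run: SAM-bound, MTA-bound and cofactor-free enzyme. IC50 is read from each; for the SAM and MTA arms it is divided by 1.5 and 13.5 respectively to give Ki.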

PRMT5 [2] = target: T1, PRMT5; experiment: PRMT5 IC50 assay with no cofactor; format: biochemical
Method in brief: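 Human PRMT5 inhibition, IC50 in μM; cofactor varied (SAM / MTA / none).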

PRMT5 [3] = target: T1, PRMT5; experiment: PRMT5 IC50 assay in the presence of MTA as cofactor; format: biochemical; settings: for IC50: PRMT5, MTA as cofactor
Method in brief: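 IC50 values were measured against human PRMT5 with SAM, with MTA, or with no cofactor. Ki was derived from IC50 as Ki=IC50/1.5 with SAM and Ki=IC50/13.5 with MTA, and the Ki(SAM)/Ki(MTA) ratio was then taken.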

HAP1 MTAP-intact = experiment: SDMA in-cell western assay, HAP1 MTAP-intact cell line; format: cell-based; settings: Homo sapiens
Method in brief: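 IC50 values come from SDMA in-cell western staining of HAP1 cells. The MTAP-intact line carries endogenous MTAP, while its MTAP-deleted counterpart lacks MTAP entirely. A selectivity ratio of at least 3 fold marks a compound as MTAP-selective.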

HAP1 MTAP-deleted = experiment: SDMA in-cell western assay, HAP1 MTAP-deleted cell line; format: cell-based; settings: for IC50: Homo sapiens, HAP1 MTAP-deleted cell line; for MTAP Intact/Deleted Ratio: IC50 ratio HAP1 MTAP-intact / HAP1 MTAP-deleted
Method in brief: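 Readout is cellular SDMA signal by in-cell western, with IC50 values derived from it. The cells are MTAP-null HAP1, matched to an isogenic MTAP-intact HAP1 line.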

[4] = ratio between the Ki in the presence of SAM and the Ki in the presence of MTA
[5] = ratio between Ki in the presence of SAM and Ki in the presence of MTA

T1 sequence (O14744 whole entry): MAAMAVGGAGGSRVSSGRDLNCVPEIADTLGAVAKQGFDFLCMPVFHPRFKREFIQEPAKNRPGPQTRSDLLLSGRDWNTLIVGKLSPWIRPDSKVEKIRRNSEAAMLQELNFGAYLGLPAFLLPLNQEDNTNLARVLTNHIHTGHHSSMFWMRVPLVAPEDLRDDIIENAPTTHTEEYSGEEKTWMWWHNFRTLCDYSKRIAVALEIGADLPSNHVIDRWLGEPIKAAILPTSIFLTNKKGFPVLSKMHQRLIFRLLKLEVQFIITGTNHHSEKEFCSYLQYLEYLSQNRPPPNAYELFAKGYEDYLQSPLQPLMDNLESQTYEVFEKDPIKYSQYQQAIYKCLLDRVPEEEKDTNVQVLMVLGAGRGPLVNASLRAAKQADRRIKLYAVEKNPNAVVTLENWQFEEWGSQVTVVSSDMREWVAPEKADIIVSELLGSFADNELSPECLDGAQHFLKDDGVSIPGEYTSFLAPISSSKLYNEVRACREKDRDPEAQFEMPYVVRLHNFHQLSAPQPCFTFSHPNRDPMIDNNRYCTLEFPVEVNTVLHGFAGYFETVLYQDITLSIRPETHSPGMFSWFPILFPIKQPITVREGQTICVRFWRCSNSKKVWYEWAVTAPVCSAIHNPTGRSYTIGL
T1 sequence (Q9BQA1 whole entry partner): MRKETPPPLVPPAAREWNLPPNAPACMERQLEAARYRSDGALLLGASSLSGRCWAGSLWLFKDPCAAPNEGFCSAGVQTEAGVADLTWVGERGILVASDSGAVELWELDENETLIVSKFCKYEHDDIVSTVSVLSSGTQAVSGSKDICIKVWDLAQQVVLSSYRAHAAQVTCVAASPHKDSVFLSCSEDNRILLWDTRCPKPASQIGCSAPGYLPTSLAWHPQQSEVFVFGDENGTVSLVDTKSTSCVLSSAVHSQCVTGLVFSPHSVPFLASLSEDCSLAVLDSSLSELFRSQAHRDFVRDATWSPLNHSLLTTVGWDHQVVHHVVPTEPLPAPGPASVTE

Row | SMILES | IC50 (PRMT5 [1]) | IC50 (PRMT5 [2]) | IC50 (PRMT5 [3]) | SAM/MTA Ratio (PRMT5 [3]; [4]) | IC50 (HAP1 MTAP-intact) | IC50 (HAP1 MTAP-deleted) | MTAP Intact/Deleted Ratio (HAP1 MTAP-deleted) | IC50 (PRMT5 [2]; read-out: No Co-factor IC50) | SAM/MTA Ratio (PRMT5 [3]; [5])
1 | Cc1c(OCc2cnco2)ccc2c1CCN(C[C@@H](O)CNC(=O)c1ccnc(NC3CN(C(=O)C4CC4)C3)c1)C2 [Compound 588, (S)-2-((1-(cyclopropanecarbonyl)azetidin-3-yl)amino)-N-(2-hydroxy-3-(5-methyl-6-(oxazol-5-ylmethoxy)-3,4-dihydroisoquinolin-2(1H)-yl)propyl)isonicotinamide] | 50 to 500 nM | 0.5 to 5 µM | 50 to 500 nM | A (a Ki ratio greater than or equal to 10 fold between the Ki in the presence of SAM and the Ki in the presence of MTA) | ≥ 10 µM | 1000 to 10000 nM | C* (an IC50 ratio of less than 3 fold between the IC50 in the HAP1 MTAP-intact cell line and the HAP1 MTAP-deleted cell line) |  | 
2 | CC(=O)N1CCC(Nc2cc(C(=O)NC[C@H](O)CN3CCc4c(ccc(OCc5ocnc5C)c4C)C3)cc(N3CCN(C(C)=O)CC3)n2)CC1 [Compound 590, 2-(4-acetylpiperazin-1-yl)-6-[(1-acetylpiperidin-4-yl)amino]-N-[(2S)-2-hydroxy-3-{5-methyl-6-[(4-methyl-1,3-oxazol-5-yl)methoxy]-1,2,3,4-tetrahydroisoquinolin-2-yl}propyl]pyridine-4-carboxamide] | 50 to 500 nM | 0.5 to 5 µM | 50 to 500 nM | A (a Ki ratio greater than or equal to 10 fold between the Ki in the presence of SAM and the Ki in the presence of MTA) | ≥ 10 µM | 1000 to 10000 nM | C* (an IC50 ratio of less than 3 fold between the IC50 in the HAP1 MTAP-intact cell line and the HAP1 MTAP-deleted cell line) |  | 
3 | CCCN(C)c1nc(NC2COC2)cc(C(=O)NC[C@H](O)CN2CCc3cc(OCc4cnco4)ccc3C2)n1 [Compound 294, (S)—N-(2-hydroxy-3-(6-(oxazol-5-ylmethoxy)-3,4-dihydroisoquinolin-2(1H)-yl)propyl)-2-(methyl(propyl)amino)-6-(oxetan-3-ylamino)pyrimidine-4-carboxamide] | 50 to 500 nM |  | 50 to 500 nM |  | 1 to 10 µM | < 1000 nM | C* (an IC50 ratio of less than 3 fold between the IC50 in the HAP1 MTAP-intact cell line and the HAP1 MTAP-deleted cell line) | 0.5 to 5 µM | A (a Ki ratio greater than or equal to 10 fold between the Ki in the presence of SAM and the Ki in the presence of MTA)
4 | CC(C)(C)C(=O)N1CCC(Nc2cc(C(=O)NC[C@H](O)CN3CCc4c(ccc(OCc5cnco5)c4Cl)C3)ccn2)CC1 [Compound 432, (S)—N-(3-(5-chloro-6-(oxazol-5-ylmethoxy)-3,4-dihydroisoquinolin-2(1H)-yl)-2-hydroxypropyl)-2-((1-pivaloylpiperidin-4-yl)amino)isonicotinamide] | 50 to 500 nM | 0.5 to 5 µM | 50 to 500 nM | A (a Ki ratio greater than or equal to 10 fold between the Ki in the presence of SAM and the Ki in the presence of MTA) | ≥ 10 µM | 1000 to 10000 nM | B* (an IC50 ratio greater than or equal to 3 fold but lower than 10 fold between the IC50 in the HAP1 MTAP-intact cell line and the HAP1 MTAP-deleted cell line) |  | 
5 | Cc1ncoc1COc1cc2c(cc1F)CN(C[C@@H](O)CNC(=O)c1ccnc(Nc3cccnc3)c1)CC2 [Compound 600, N-[(2S)-3-[7-fluoro-6-[(4-methyloxazol-5-yl)methoxy]-3,4-dihydro-1H-isoquinolin-2-yl]-2-hydroxy-propyl]-2-(3-pyridylamino)pyridine-4-carboxamide] | 50 to 500 nM | ≥ 5 µM | 50 to 500 nM | A (a Ki ratio greater than or equal to 10 fold between the Ki in the presence of SAM and the Ki in the presence of MTA) | ≥ 10 µM | 1000 to 10000 nM | B* (an IC50 ratio greater than or equal to 3 fold but lower than 10 fold between the IC50 in the HAP1 MTAP-intact cell line and the HAP1 MTAP-deleted cell line) |  | 
6 | O=C(NC[C@H](O)CN1CCc2cc(OCc3cnco3)ccc2C1)c1cc(NC2CCC2)nc(N2CCCCC2)c1 [Compound 320, (S)-2-(cyclobutylamino)-N-(2-hydroxy-3-(6-(oxazol-5-ylmethoxy)-3,4-dihydroisoquinolin-2(1H)-yl)propyl)-6-(piperidin-1-yl)isonicotinamide] | 500 to 5000 nM |  | 500 to 5000 nM |  | 1 to 10 µM | 1000 to 10000 nM | C* (an IC50 ratio of less than 3 fold between the IC50 in the HAP1 MTAP-intact cell line and the HAP1 MTAP-deleted cell line) | 0.5 to 5 µM | 
7 | COCCN(C)c1cc(C(=O)NC[C@H](O)CN2CCc3cc(OCc4cnco4)ccc3C2)cc(NC2CCC2)n1 [Compound 369, (S)-2-(cyclobutylamino)-N-(2-hydroxy-3-(6-(oxazol-5-ylmethoxy)-3,4-dihydroisoquinolin-2(1H)-yl)propyl)-6-((2-methoxyethyl)(methyl)amino)isonicotinamide] | 500 to 5000 nM |  | 50 to 500 nM |  | 1 to 10 µM | ≥ 10000 nM | C* (an IC50 ratio of less than 3 fold between the IC50 in the HAP1 MTAP-intact cell line and the HAP1 MTAP-deleted cell line) | 0.5 to 5 µM | A (a Ki ratio greater than or equal to 10 fold between the Ki in the presence of SAM and the Ki in the presence of MTA)
8 | COc1ccc(C(=O)N2CCc3cc(C(=O)NC[C@H](O)CN4CCc5cc(OCc6ocnc6C)ccc5C4)ccc3C2)cc1 [Compound 498, (S)—N-(2-hydroxy-3-(6-((4-methyloxazol-5-yl)methoxy)-3,4-dihydroisoquinolin-2(1H)-yl)propyl)-2-(4-methoxybenzoyl)-1,2,3,4-tetrahydroisoquinoline-6-carboxamide] | 50 to 500 nM | 0.5 to 5 µM | 50 to 500 nM | A (a Ki ratio greater than or equal to 10 fold between the Ki in the presence of SAM and the Ki in the presence of MTA) | 1 to 10 µM | < 1000 nM | B* (an IC50 ratio greater than or equal to 3 fold but lower than 10 fold between the IC50 in the HAP1 MTAP-intact cell line and the HAP1 MTAP-deleted cell line) |  | 
9 | CC(=O)N1CCC(Nc2cc(C(=O)NC[C@H](O)CN3CCc4cc(OCc5cnn[nH]5)ccc4C3)ncn2)CC1 [Compound 257, (S)—N-(3-(6-((1H-1,2,3-triazol-5-yl)methoxy)-3,4-dihydroisoquinolin-2(1H)-yl)-2-hydroxypropyl)-6-((1-acetylpiperidin-4-yl)amino)pyrimidine-4-carboxamide] | 500 to 5000 nM |  | 50 to 500 nM |  | ≥ 10 µM | 1000 to 10000 nM | C* (an IC50 ratio of less than 3 fold between the IC50 in the HAP1 MTAP-intact cell line and the HAP1 MTAP-deleted cell line) | ≥ 5 µM | A (a Ki ratio greater than or equal to 10 fold between the Ki in the presence of SAM and the Ki in the presence of MTA)
10 | CC(=O)N1CCC(Nc2cc(C(=O)NC[C@H](O)CN3CCc4cc(OCc5conc5C)ccc4C3)ncn2)CC1 [Compound 233, (S)-6-((1-acetylpiperidin-4-yl)amino)-N-(2-hydroxy-3-(6-((3-methylisoxazol-4-yl)methoxy)-3,4-dihydroisoquinolin-2(1H)-yl)propyl)pyrimidine-4-carboxamide] | 50 to 500 nM |  | 50 to 500 nM |  | ≥ 10 µM | 1000 to 10000 nM | C* (an IC50 ratio of less than 3 fold between the IC50 in the HAP1 MTAP-intact cell line and the HAP1 MTAP-deleted cell line) | ≥ 5 µM | A (a Ki ratio greater than or equal to 10 fold between the Ki in the presence of SAM and the Ki in the presence of MTA)
11 | CC(C)C(=O)N1CCC(Nc2cc(C(=O)NC[C@H](O)CN3CCc4cc(OCc5cnco5)ccc4C3)ccn2)CC1 [Compound 458, N-[(2S)-2-hydroxy-3-[6-(oxazol-5-ylmethoxy)-3,4-dihydro-1H-isoquinolin-2-yl]propyl]-2-[[1-(2-methylpropanoyl)-4-piperidyl]amino]pyridine-4-carboxamide] | 50 to 500 nM | 0.5 to 5 µM | 50 to 500 nM | A (a Ki ratio greater than or equal to 10 fold between the Ki in the presence of SAM and the Ki in the presence of MTA) | 1 to 10 µM | < 1000 nM | C* (an IC50 ratio of less than 3 fold between the IC50 in the HAP1 MTAP-intact cell line and the HAP1 MTAP-deleted cell line) |  | 
12 | Cc1ncoc1COc1ccc2c(c1Br)CCN(C[C@@H](O)CNC(=O)c1ccnc(NC3CCC3)c1)C2 [Compound 267, N-[(2S)-3-[5-bromo-6-[(4-methyloxazol-5-yl)methoxy]-3,4-dihydro-1H-isoquinolin-2-yl]-2-hydroxy-propyl]-2-(cyclobutylamino)pyridine-4-carboxamide] | 500 to 5000 nM |  | 50 to 500 nM |  | ≥ 10 µM | ≥ 10000 nM | C* (an IC50 ratio of less than 3 fold between the IC50 in the HAP1 MTAP-intact cell line and the HAP1 MTAP-deleted cell line) | ≥ 5 µM | 
